From patent EP0241395A2, “Sweeteners derived from n-phenylguanidinoacetic and n-phenylethananamidinacetic acids, and compositions containing such sweeteners” (UNIVERSITE CLAUDE BERNARD - LYON 1, priority 1986, dated 1987)

Tested on: groupe de huit goûteurs expérimentés
Experiment: Sweetening power judged by a panel of eight experienced tasters against a sucrose reference solution
Format: in vivo
Conditions: weight basis; for Pouvoir édulcorant: Table II, relative to a 2 % sucrose solution; for pouvoir édulcorant, sur une base pondérale: approximate
Source text: Le pouvoir édulcorant des composés préparés dans les exemples suivants a été évalué par un groupe de huit goûteurs expérimentés. Pour cela, les composés, en solution aqueuse à des concentrations variables, sont comparés, sur le plan gustatif, à une solution témoin de saccharose à 2 % et dans certains cas à 5 % et 10 %, c'est-à-dire à des concentrations correspondant à celles utilisées lors d'un usage courant. Le pouvoir sucrant des édulcorants de synthèse varie en effet suivant la concentration de la solution de saccharose utilisée comme référence. Le pouvoir édulcorant du composé testé par rapport au saccharose correspond alors au rapport pondéral qui existe entre le composé et le saccharose à égale intensité édulcorante, c'est-à-dire quand les saveurs sucrées de la solution du composé testé et de la solution témoin de saccharose sont considérées, par une majorité de goûteurs, avoir la même intensité édulcorante.

[1] = by comparison with a 2 % sucrose solution
[2] = by comparison with a 5 % sucrose solution
[3] = by comparison with a 10 % sucrose solution

Row | Structure (SMILES) | Pouvoir édulcorant | pouvoir édulcorant, sur une base pondérale [1] | pouvoir édulcorant, sur une base pondérale [2] | pouvoir édulcorant, sur une base pondérale [3]
1 | N#Cc1ccc(NC(=NC2CCCCCCC2)NCC(=O)O)cc1 [Exemple 47, acide N-[N-cyclooctylamino-(4-cyanophénylimino)méthyl]-2-aminoéthanoïque] | 170000 | ~170 000 fois celui du saccharose | ~130 000 fois celui du saccharose | ~100 000 fois celui du saccharose
2 | CC(C)N(C)C(=Nc1ccc(C#N)cc1)NCC(=O)O [Exemple 32, acide N-[N-méthyl-N-1-méthyléthyl-amino(4-cyanophénylimino)méthyl]-2-aminoéthanoïque] | 80 | ~80 fois celui du saccharose | – | –
3 | O=C(O)CNC(=Nc1cc(Cl)cc(Cl)c1)NC1CCCCCC1 [Exemple 44, acide N-[N-cycloheptylamino (3,5-dichlorophénylimino)méthyl]-2-aminoéthanoïque] | 20000 | ~20 000 fois celui du saccharose | – | –
4 | C[C@H](N=C(NCC(=O)O)Nc1ccc(F)cc1)c1ccccc1 [Exemple 17, acide N-[N-(S)-α-méthylbenzylamine (4-fluorophénylimino)méthyl]-2-aminoéthanoïque] | 4000 | ~4 000 fois celui du saccharose | – | –
5 | CCC(C)(C)NC(=Nc1ccc(C#N)cc1)NCC(=O)O [Exemple 38, acide N-[N-(1,1-diméthylpropyl)amino(4-cyanophénylimino)méthyl]-2-aminoéthanoïque] | 300 | ~300 fois celui du saccharose | – | –
6 | COC(=O)c1ccc(N=C(NCC(=O)O)N[C@@H](C)c2ccccc2)cc1 [Exemple 16, acide N-[N-(S)-α-méthylbenzylamino (4-méthoxycarbonylphénylimino)méthyl]-2-aminoéthanoïque] | 700 | ~700 fois celui du saccharose | – | –
7 | N#Cc1cccc(N=C(NCC(=O)O)NCC2CCCCC2)c1 [Exemple 56, acide N-[N-cyclohexylméthylamino (3-cyanophénylimino)méthyl]-2-aminoéthanoïque] | 5000 | ~5 000 fois celui du saccharose | – | –
8 | Cc1cc(C)cc(N=C(NCC(=O)O)N[C@@H](C)c2ccccc2)c1 [Exemple 25, acide N-[N-(S)-α-méthylbenzylamino (3,5-diméthylphénylimino)méthyl]-2-aminoéthanoïque] | 30000 | ~30 000 fois celui du saccharose | – | –
9 | O=C(O)CNC(=Nc1ccccc1)NCC1CCCCC1 [Exemple 55, acide N-[N-cyclohexylméthylamino (phénylimino)méthyl]-2-aminoéthanoïque] | 3 300 | ~3 300 fois celui du saccharose | ~2 500 fois celui du saccharose | ~2 000 fois celui du saccharose
10 | CCN(Cc1ccccc1)C(=Nc1ccc(C#N)cc1)NCC(=O)O [Exemple 34, acide N-[N-éthyl-N-benzylamino (4-cyanophénylimino)méthyl]-2-aminoéthanoïque] | 3000 | ~3 000 fois celui du saccharose | – | –
11 | C[C@@H](NC(=Nc1ccc(C#N)cc1)NC1CCCCC1)C(=O)O [Exemple 85, acide (R)-N-[N-cyclohexylamino (4-cyanophénylimino)méthyl]-2-aminopropanoïque] | 100 | ~100 fois celui du saccharose | – | –
12 | Cc1ccc(N=C(NCC(=O)O)N[C@@H](C)c2ccccc2)cc1 [Exemple 12, acide N-[N-(S)-a-méthylbenzylamino (4-méthylphénylimino)méthyl]-2-aminoéthanoïque] | 800 | ~800 fois celui du saccharose | – | –
13 | O=C(O)CNC(=Nc1cc(Cl)cc(Cl)c1)NN1CCOCC1 [Exemple 76, acide N-[N-morpholinoamino (3,5-dichlorophénylimino)méthyl]-2-aminoéthanoïque] | 500 | ~500 fois celui du saccharose | – | –
14 | COC(=O)c1ccc(N=C(NCC(=O)O)NCC2CCCCC2)cc1 [Exemple 60, acide N-[N-cyclohexylméthylamino(4-méthoxycarbonylphénylimino)méthyl]-2-aminoéthanoïque] | 1300 | ~1 300 fois celui du saccharose | ~900 fois celui du saccharose | ~500 fois celui du saccharose
15 | N#Cc1ccc(N=C(NCC(=O)O)NC2CCCCC2)cc1 [Exemple 43, acide N-[N-cyclohexylamino(4-cyanophénylimino)méthyl]-2-aminoéthanoïque] | 12000 | ~12 000 fois celui du saccharose | ~10 500 fois celui du saccharose | ~8 500 fois celui du saccharose
16 | CCc1cccc(N=C(NCC(=O)O)N[C@@H](C)c2ccccc2)c1 [Exemple 5, acide N-[N-(S) -α-méthylbenzylamino (3-éthylphénylimino)méthyl]-2-aminoéthanoïque] | 4 500 | ~4 500 fois celui du saccharose | – | –
17 | O=C(O)CNC(=Nc1ccccc1)NC1CCCCC1 [Exemple 42, acide N-[N-cyclohexylamino(phénylimino)méthyl]-2-aminoéthanoïque] | 100 | ~100 fois celui du saccharose | – | –
18 | C[C@@H](NC(=Nc1ccc(C#N)cc1)NC1CCCCCCC1)C(=O)O [Exemple 87, acide (R)-N-[N-cyclooctylamino(4-cyanophénylimino)méthyl]-2-aminopropanoïque] | 900 | ~900 fois celui du saccharose | – | –
19 | C[C@H](NC(=Nc1cc(Cl)cc(Cl)c1)NCC(=O)O)C1CCCCC1 [Exemple 63, acide N-[N-(S)-l-cyclohexyléthylamino(3,5-dichlorophénylimino)méthyl]-2-aminoéthanoïque] | 70000 | ~70 000 fois celui du saccharose | – | –
20 | Cc1cc(NC(=NC2CCCCCCC2)NCC(=O)O)ccc1C#N [Exemple 48, acide N-[N-cyclooctylamino(4-cyano-3-méthylphénylimino)méthyl]-2-aminoéthanoïque] | 80000 | ~80 000 fois celui du saccharose | – | –
21 | CCNC(=Nc1ccc(C#N)cc1)NCC(=O)O [Exemple 35, acide N-[N-éthylamino(4-cyanophénylimino)méthyl]-2-aminoéthanoïque] | 350 | ~350 fois celui du saccharose | – | –
22 | O=C(O)CNC(=NS(=O)(=O)c1ccccc1)Nc1cccc(Cl)c1 [Exemple 79, acide N-[phénylsulfonylimino (3-chlorophénylamino)méthyl]-2-aminoéthanoique] | 17000 | ~17 000 fois celui du saccharose | – | –
